From patent publication US11505548B2, “Heterocyclic compounds and their use for treatment of helminthic infections and diseases” (Celgene Corporation, priority 2019, dated 2022) come the findings set out here.

In the test the test system is microfilariae of Dirofilaria immitis. In words: Dirofilaria immitis, Microfilaria (DiMF) Assay. In kind it is cell-based. The following applies: read-out: D. immitis activity level (IC50 or MED). How it is done:
Heartworm Screen Dirofilaria immitis (D. immitis)
Dirofilaria immitis, Microfilaria (DiMF) Assay.
Compounds were dissolved and serially diluted in DMSO. Aliquots were spotted to the empty wells of assay plates. Media and microfilariae of Dirofilaria immitis were added to each well to dilute the test compounds to the desired concentrations. Assay plates were incubated for approximately 72 hours, and the larvae in each well were observed microscopically for drug effect. Microfilariae in each well were assessed subjectively for survival or paralysis, and results were reported as Minimum Effective Dose (MED).
Active and selective (DiL4 vs. DiMF potency) example compounds were subsequently evaluated in heartworm positive dog studies to correlate the in vitro selectivity profile with in vivo effects on circulating microfilariae.

Structures are written as SMILES.

Broadly, the IC50 is the concentration at which inhibition is half-maximal. On to `Cc1cccnc1Nc1nc(-c2cc(C(F)(F)F)c(OC3CC3)cn2)ns1` [Compound 102, 3-(5-cyclo-propoxy-4-(trifluoromethyl)pyridin-2-yl)-N-(3-methyl-pyridin-2-yl)-1,2,4-thiadiazol-5-amine], for which the IC50 is 200 to 500 nM.

For the compound `c1ccc(-c2nsc(Nc3ccc(OC4CCOCC4)cn3)n2)nc1` [Cmpd 9, 3-(pyridin-2-yl)-N-(5-(tetrahydro-2H-pyran-4-yloxy)pyridin-2-yl)-1,2,4-thiadiazol-5-amine], the IC50 was in the range of 500 to 5000 nM.

As to `Cc1cccnc1Nc1nc(-c2ccc(OC(C)C)cn2)ns1` [Compound 19, 3-(5-isopropoxy-pyridin-2-yl)-N-(3-methyl-pyridin-2-yl)-1,2,4-thiadiazol-5-amine], the IC50 is less than 200 nM.

`CC(C)Oc1cnc(-c2nsc(Nc3ncccc3C(C)C)n2)cc1C(N)=O` [Compound 198, 5-isopropoxy-2-(5-(3-isopropylpyridin-2-ylamino)-1,2,4-thiadiazol-3-yl)isonicotin-amide]: the IC50 lay in the range of 500 to 5000 nM.

Take `COC(=O)c1cc(-c2nsc(Nc3ncccc3C(C)C)n2)ncc1OC(C)C` [Compound 197, methyl 5-isopropoxy-2-(5-(3-isopropylpyridin-2-ylamino)-1,2,4-thiadiazol-3-yl)isonicotinate]: the IC50 is less than 200 nM.

In the case of `c1ccc(-c2nsc(Nc3ccc(N4CCCC4)cn3)n2)nc1` [Cmpd 8, 3-(pyridin-2-yl)-N-(5-(pyrrolidin-1-yl)pyridin-2-yl)-1,2,4-thiadiazol-5-amine], the IC50 was in the range of 500 to 5000 nM.

With `Cc1cnc(Nc2nc(-c3cc(C(N)=O)c(OC(C)C)cn3)ns2)c(C(F)(F)F)c1` [Compound 252, 5-isopropoxy-2-(5-(5-methyl-3-(trifluoro-methyl)pyridin-2-ylamino)-1,2,4-thiadiazol-3-yl)isonico-tinamide], the IC50 was 500 to 5000 nM.

For `CC(=O)N(C)c1cccnc1Nc1nc(-c2ccc(OC(C)C)cn2)ns1` [Compound 157, N-(2-(3-(5-isopropoxy-pyridin-2-yl)-1,2,4-thiadiazol-5-ylamino)pyridin-3-yl)-N-methyl-acetamide], the IC50 was in the range of 500 to 5000 nM.

In the case of `CC(C)Oc1cnc(-c2nsc(Nc3ncccc3C(=O)N3CCCC3)n2)cc1C(F)(F)F` [Compound 251, (2-(3-(5-isopropoxy-4-(trifluoromethyl)pyridin-2-yl)-1,2,4-thiadiazol-5-ylamino)pyridin-3-yl) (pyrrolidin-1-yl)methanone], the IC50 was in the range of 500 to 5000 nM.

`CC(=O)N(C)c1cc(C(F)(F)F)cnc1Nc1nc(-c2ccc(OC(C)C)cn2)ns1` [Compound 247, N-(2-(3-(5-isopropoxy-pyridin-2-yl)-1,2,4-thiadiazol-5-ylamino)-5-(trifluoro-methyl)pyridin-3-yl)-N-methylacetamide]: the IC50 was less than 200 nM.

Regarding `CC(C)c1cnc(Nc2nc(-c3ccc(OC4CC4)cn3)ns2)cc1C(F)(F)F` [Compound 95, 3-(5-cyclopropoxy-pyridin-2-yl)-N-(5-isopropyl-4-(trifluoromethyl)pyridin-2-yl)-1,2,4-thiadiazol-5-amine], the IC50 was less than 200 nM.

Regarding `COc1ccnc(-c2nsc(Nc3cc(C(F)(F)F)c(C(C)C)cn3)n2)c1` [Compound 182, N-(5-iso-propyl-4-(trifluoro-methyl)pyridin-2-yl)-3-(4-methoxy-pyridin-2-yl)-1,2,4-thiadiazol-5-amine], the IC50 is less than 200 nM.

Consider `CC(=O)N(C)c1cccnc1Nc1nc(-c2ccc(NC34CC(C3)C4)cn2)ns1` [Compound 207, N-(2-(3-(5-(bicyclo [1.1.1]pentan-1-ylamino)pyridin-2-yl)-1,2,4-thiadiazol-5-ylamino)pyridin-3-yl)-N-methylacetamide], for which the IC50 fell in the range of 500 to 5000 nM.

Regarding `CC(=O)N1CCC(Oc2ccc(-c3nsc(Nc4ncccc4C)n3)nc2)CC1` [Compound 266, 1-(4-(6-(5-(3-methyl-pyridin-2-ylamino)-1,2,4-thiadiazol-3-yl)pyridin-3-yloxy)piperidin-1-yl)ethanone], the IC50 lay within 500 to 5000 nM.

`CC(=O)N(C)c1cccnc1Nc1nc(-c2cc3c(cn2)N(C)CC3)ns1` [Compound 202, N-methyl-N-(2-(3-(1-methyl-2,3-dihydro-1H-pyrrolo[2,3-c]pyridin-5-yl)-1,2,4-thiadiazol-5-ylamino)pyridin-3-yl)acetamide]: the concentration for half-maximal inhibition (IC50) was in the range of 500 to 5000 nM.

Consider `COC(=O)c1cccnc1Nc1nc(-c2ccc(OC(C)C)cn2)ns1` [Compound 276, methyl 2-(3-(5-isopropoxy-pyridin-2-yl)-1,2,4-thiadiazol-5-ylamino) nicotinate], for which the IC50 was in the range of 500 to 5000 nM.

For the compound `CC(C)Oc1cnc(-c2nsc(Nc3ncccc3C(C)C)n2)cc1C(F)(F)F` [Compound 168, 3-(5-isoprop-oxy-4-(trifluoromethyl)pyridin-2-yl)-N-(3-isopropyl-pyridin-2-yl)-1,2,4-thiadiazol-5-amine], the IC50 lay in the range of 200 to 500 nM.

Take `CC(=O)N(C)c1cc(C(F)(F)F)cnc1Nc1nc(-c2cc3c(cn2)OC(C)(C)C3)ns1` [Compound 272, N-(2-(3-(2,2-dimethyl-2,3-dihydrofuro [2,3-c]pyridin-5-yl)-1,2,4-thiadiazol-5-ylamino)-5-(trifluoromethyl)pyridin-3-yl)-N-methylacetamide]: the IC50 was less than 200 nM.

For `CC(C)Oc1ccc(-c2nsc(Nc3ncc(C(F)(F)F)cc3N(C)C(=O)C3CC3)n2)nc1` [Compound 248, N-(2-(3-(5-isopropoxy-pyridin-2-yl)-1,2,4-thiadiazol-5-ylamino)-5-(trifluoro-methyl)pyridin-3-yl)-N-methylcyclo-propanecarbox-amide], the half-maximal inhibitory concentration (IC50) is less than 200 nM.

For the compound `Cc1cccnc1Nc1nc(-c2cc(C#N)c(OC(C)C)cn2)ns1` [Compound 200, 5-isopropoxy-2-(5-(3-methylpyridin-2-ylamino)-1,2,4-thiadiazol-3-yl)isonicotino-nitrile], the IC50 is 200 to 500 nM.

Consider `CC(C)Oc1cnc(-c2nsc(Nc3ncccc3C(F)(F)F)n2)cc1C(N)=O` [Compound 220, 5-isopropoxy-2-(5-(3-(trifluoromethyl)pyridin-2-ylamino)-1,2,4-thiadiazol-3-yl)isonico-tinamide], for which the IC50 fell in the range of 500 to 5000 nM.

As to `CC(C)Oc1cnc(-c2nsc(Nc3ncccc3N(C)C(=O)C3CC3)n2)cc1C(F)(F)F` [Compound 186, N-(2-(3-(5-isopropoxy-4-(trifluoro-methyl)pyridin-2-yl)-1,2,4-thiadiazol-5-ylamino)pyridin-3-yl)-N-methylcyclo-propanecarbox-amide], the IC50 was 200 to 500 nM.

In the case of `Cc1cnc(Nc2nc(-c3cc(OC4COC4)ccn3)ns2)c(C(F)(F)F)c1` [Compound 275, N-(5-methyl-3-(trifluoromethyl)pyridin-2-yl)-3-(4-(oxetan-3-yloxy)pyridin-2-yl)-1,2,4-thiadiazol-5-amine], the IC50 was less than 200 nM.

Consider `Cc1cccnc1Nc1nc(-c2cc(OC3CC3)ccn2)ns1` [Compound 65, 3-(4-cycloprop-oxypyridin-2-yl)-N-(3-methyl-pyridin-2-yl)-1,2,4-thiadiazol-5-amine], for which the IC50 was less than 200 nM.

As to `COc1ccc(-c2nsc(Nc3ccc(C(F)(F)F)cn3)n2)nc1` [Compound 209, 3-(5-methoxy-pyridin-2-yl)-N-(5-(trifluoromethyl)pyridin-2-yl)-1,2,4-thiadiazol-5-amine], the IC50 lay within 500 to 5000 nM.

On to `Cc1cccnc1-c1nsc(Nc2ccc(N3CCCC3)cn2)n1` [Compound 51, 3-(3-methyl-pyridin-2-yl)-N-(5-(pyrrolidin-1-yl)pyridin-2-yl)-1,2,4-thiadiazol-5-amine], for which the IC50 lay within 500 to 5000 nM.

For the compound `CC(=O)N(C)c1cccnc1Nc1nc(-c2cc(C)ccn2)ns1` [Compound 208, N-methyl-N-(2-(3-(4-methylpyridin-2-yl)-1,2,4-thiadiazol-5-ylamino)pyridin-3-yl)acetamide], the IC50 was in the range of 500 to 5000 nM.

Turning to `CC(C)c1cccnc1Nc1nc(-c2ccc(OC3CCN(C4CC4)CC3(F)F)cn2)ns1` (stereo not shown) [Compound 87, 3-(5-(1-cyclo-propyl-3,3-difluoro-piperidin-4-yloxy)pyridin-2-yl)-N-(3-isopropylpyridin-2-yl)-1,2,4-thiadiazol-5-amine], the IC50 was 200 to 500 nM.

Consider `CC(=O)Nc1cccnc1Nc1nc(-c2ccc(OC(C)C)cn2)ns1` [Compound 161, N-(2-(3-(5-isopropoxy-pyridin-2-yl)-1,2,4-thiadiazol-5-ylamino)pyridin-3-yl)acetamide], for which the IC50 fell in the range of 500 to 5000 nM.

In the case of `CC(=O)N(C)c1cccnc1Nc1nc(-c2cc(C(C)C)ccn2)ns1` [Compound 216, N-(2-(3-(4-iso-propylpyridin-2-yl)-1,2,4-thiadiazol-5-ylamino)pyridin-3-yl)-N-methyl-acetamide], the 50% inhibitory concentration (IC50) lay in the range of 200 to 500 nM.

For the compound `CC(C)Oc1cnc(-c2nsc(Nc3ncccc3N(C)C)n2)cc1C(F)(F)F` [Compound 156, N2-(3-(5-isopropoxy-4-(trifluoromethyl)pyridin-2-yl)-1,2,4-thiadiazol-5-yl)-N3,N3-dimethyl-pyridine-2,3-diamine], the IC50 lay within 200 to 500 nM.

`CC(C)Oc1ccc(-c2nsc(Nc3ncccc3C(C)C)n2)nc1` [Compound 115, 3-(5-isopropoxy-pyridin-2-yl)-N-(3-isopropyl-pyridin-2-yl)-1,2,4-thiadiazol-5-amine]: the IC50 is less than 200 nM.

`CC(=O)N(C)c1cccnc1Nc1nc(-c2cc(C(F)(F)F)c(OC(C)C)cn2)ns1` [Compound 187, N-(2-(3-(5-isopropoxy-4-(trifluoro-methyl)pyridin-2-yl)-1,2,4-thiadiazol-5-ylamino)pyridin-3-yl)-N-methylacetamide]: the IC50 was in the range of 200 to 500 nM.

On to `CC(C)Oc1ccc(-c2nsc(Nc3ncccc3C(F)(F)F)n2)nc1` [Compound 54, 3-(5-isopropoxy-pyridin-2-yl)-N-(3-(trifluoromethyl)pyridin-2-yl)-1,2,4-thiadiazol-5-amine], for which the IC50 was less than 200 nM.
